From PubChem BioAssay AID256 (DTP/NCI, 2004)
Several values for one entry are separate records, joined by “and”; a condition that tells them apart may be missing. Equal values may be shown once. Inconclusive results and toxic doses are left out. Rule for the calls: active = survival T/C of 150% or more; inactive = T/C below 125% in these data.

Test system: CD2F1 mice, L1210 leukemia ip, survival T/C
Assay: NCI In Vivo Anticancer Drug Screen. Data for tumor model L1210 Leukemia (intraperitoneal) in CD2F1 (CDF1) mice
Conditions: higher = longer survival
Summary of the method: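 Read-out first: treated-group measurement over vehicle-control measurement, expressed as a ratio. Animals bore a transplanted tumor line and were dosed with compound or vehicle.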

[1] = endpoint: mean survival time, dose: 100.0 mg/kg/injection, schedule: Q04DX002 (ip), vehicle: saline with Tween-80
[2] = endpoint: mean survival time, dose: 200.0 mg/kg/injection, schedule: Q04DX002 (ip), vehicle: saline with Tween-80
[3] = endpoint: mean survival time, dose: 400.0 mg/kg/injection, schedule: Q04DX002 (ip), vehicle: saline with Tween-80
[4] = endpoint: mean survival time, dose: 100.0 mg/kg/injection, schedule: Q04DX003 (ip), vehicle: saline with Tween-80
[5] = endpoint: mean survival time, dose: 200.0 mg/kg/injection, schedule: Q04DX003 (ip), vehicle: saline with Tween-80
[6] = endpoint: mean survival time, dose: 400.0 mg/kg/injection, schedule: Q04DX003 (ip), vehicle: saline with Tween-80
[7] = endpoint: mean survival time, dose: 100.0 mg/kg/injection, schedule: Q01DX009 (ip), vehicle: saline with Tween-80
[8] = endpoint: mean survival time, dose: 200.0 mg/kg/injection, schedule: Q01DX009 (ip), vehicle: saline with Tween-80
[9] = endpoint: mean survival time, dose: 25.0 mg/kg/injection, schedule: Q01DX009 (ip), vehicle: saline with Tween-80
[10] = endpoint: mean survival time, dose: 50.0 mg/kg/injection, schedule: Q01DX009 (ip), vehicle: saline with Tween-80
[11] = endpoint: mean survival time, dose: 75.0 mg/kg/injection, schedule: Q01DX001 (ip), vehicle: saline
[12] = endpoint: mean survival time, dose: 12.5 mg/kg/injection, schedule: Q04DX002 (ip), vehicle: saline with Tween-80
[13] = endpoint: mean survival time, dose: 25.0 mg/kg/injection, schedule: Q04DX002 (ip), vehicle: saline with Tween-80

Measured: T/C

CCCCCOC(=O)COc1ccc(F)cc1
inactive: [1] 97 % of control | [2] 105 % of control | [3] 101 % of control

CCCc1cc(CCC)nc(NNc2nc(CCC)cc(CCC)n2)n1
inactive: [4] 96 % of control | [5] 94 % of control | [6] 96 % of control

CCOC(OCC)n1ncnc1NC(=S)NCc1ccccc1
inactive: endpoint: mean survival time, dose: 12.5 mg/kg/injection, schedule: Q01DX001 (ip), vehicle: carboxymethylcellulose (CMC) 100 % of control | endpoint: mean survival time, dose: 25.0 mg/kg/injection, schedule: Q01DX001 (ip), vehicle: carboxymethylcellulose (CMC) 95 % of control | endpoint: mean survival time, dose: 50.0 mg/kg/injection, schedule: Q01DX001 (ip), vehicle: carboxymethylcellulose (CMC) 93 % of control | endpoint: mean survival time, dose: 100.0 mg/kg/injection, schedule: Q01DX001 (ip), vehicle: carboxymethylcellulose (CMC) 108 % of control | endpoint: mean survival time, dose: 200.0 mg/kg/injection, schedule: Q01DX001 (ip), vehicle: carboxymethylcellulose (CMC) 91 % of control

NC(CC(=O)O)C(=O)O (stereo not given)
inactive: endpoint: mean survival time, dose: 200.0 mg/kg/injection, schedule: Q01DX009 (ip), vehicle: saline 97 % of control | endpoint: mean survival time, dose: 400.0 mg/kg/injection, schedule: Q01DX009 (ip), vehicle: saline 95 % of control | endpoint: mean survival time, dose: 800.0 mg/kg/injection, schedule: Q01DX009 (ip), vehicle: saline 98 % of control

CC1OC(OC2C(OC3CCC4(C)C(CCC5(C)C4CC=C4C6CC(C)(C)CCC6(CO)C(O)CC45C)C3(C)C)OC(CO)C(OC3OC(COC4OC(CO)C(O)C(O)C4O)C(O)C(O)C3O)C2O)C(O)C(O)C1O (stereo not given)
inactive: endpoint: mean survival time, dose: 50.0 mg/kg/injection, schedule: Q01DX001 (sc), vehicle: steriod suspending solution 103 % of control

N#CC1c2ccccc2C=NN1C(=O)N(c1ccccc1)c1ccccc1 (stereo not given)
inactive: endpoint: mean survival time, dose: 100.0 mg/kg/injection, schedule: Q04DX003 (ip), vehicle: other 103 % of control | endpoint: mean survival time, dose: 200.0 mg/kg/injection, schedule: Q04DX003 (ip), vehicle: other 105 % of control | endpoint: mean survival time, dose: 400.0 mg/kg/injection, schedule: Q04DX003 (ip), vehicle: other 105 % of control

[Br][Sn]([Br])([c]1cccc2ccccc12)[c]1cccc2ccccc12
inactive: [4] 105 % of control | [5] 109 % of control | [6] 97 % of control

COc1c(C)ccc2c1CCN1C3=C(CCC21)CC1(CC3)OCCO1 (stereo not given)
inactive: [7] 95 % of control | [4] 92 % of control | [8] 89 % of control | [5] 94 % of control | [6] 94 % of control

O=C(Nc1ccc(F)cc1)c1cccc(C(=O)Nc2ccc(F)cc2)c1
inactive: [9] 95 % of control | [10] 94 % of control | [7] 94 % of control

CCC1c2cc(O)c(OC)cc2CCN1C (stereo not given)
inactive: [11] 106 % of control

Cc1cc(Nc2ccccc2)nc(C)n1
inactive: [12] 111 % of control | [13] 114 % of control

C=CCOc1c(C)cc(C)cc1/C=C/C
inactive: [7] 94 % of control | [8] 89 % of control

CC(CCC(=O)O)(c1ccc(O)cc1)c1ccc(O)cc1
inactive: endpoint: mean survival time, dose: 100.0 mg/kg/injection, schedule: Q01DX009 (ip), vehicle: other 91 % of control | endpoint: mean survival time, dose: 200.0 mg/kg/injection, schedule: Q01DX009 (ip), vehicle: other 101 % of control | endpoint: mean survival time, dose: 400.0 mg/kg/injection, schedule: Q01DX009 (ip), vehicle: other 97 % of control

COc1cc(OC)c(NC(=O)Oc2ccc(Br)cc2Br)cc1Cl
inactive: endpoint: mean survival time, dose: 12.5 mg/kg/injection, schedule: Q01DX009 (ip), vehicle: saline with Tween-80 92 % of control | [9] 100 % of control | [10] 94 % of control and 107 % of control | [7] 94 % of control | [8] 90 % of control

O=C(O)c1cccc(-c2c3ccc(=O)cc-3oc3cc(O)ccc23)c1
inactive: [4] 96 % of control | [5] 100 % of control | [6] 96 % of control

CN(C)C(=O)Sc1ccc(S(=O)(=O)F)c(Cl)c1Cl
inactive: [1] 100 % of control | [2] 100 % of control | [3] 103 % of control

O/N=C(/Cl)c1ccccn1
inactive: endpoint: mean survival time, dose: 1.88 mg/kg/injection, schedule: Q04DX003 (ip), vehicle: saline 102 % of control | endpoint: mean survival time, dose: 3.75 mg/kg/injection, schedule: Q04DX003 (ip), vehicle: saline 94 % of control | endpoint: mean survival time, dose: 7.5 mg/kg/injection, schedule: Q01DX001 (ip), vehicle: saline 101 % of control | endpoint: mean survival time, dose: 7.5 mg/kg/injection, schedule: Q04DX003 (ip), vehicle: saline 94 % of control

N#[N+]c1cn(C2CC(O)C(CO)O2)c(=O)[nH]c1=O (stereo not given)
inactive: [4] 101 % of control | [5] 98 % of control | [6] 118 % of control

NC(CS)=NCC12CC3CC(CC(C3)C1)C2
inactive: endpoint: mean survival time, dose: 12.5 mg/kg/injection, schedule: Q01DX001 (ip), vehicle: Klucel (hydroxypropylcellulose) (HPC) 92 % of control | endpoint: mean survival time, dose: 25.0 mg/kg/injection, schedule: Q01DX001 (ip), vehicle: Klucel (hydroxypropylcellulose) (HPC) 94 % of control | endpoint: mean survival time, dose: 50.0 mg/kg/injection, schedule: Q01DX001 (ip), vehicle: Klucel (hydroxypropylcellulose) (HPC) 101 % of control

Cn1/c2cc/c1=C(\c1ccc(S(=O)(=O)O)cc1)c1ccc([n-]1)/C(c1ccc(S(=O)(=O)O)cc1)=c1/cc/c([nH]1)=C(\c1ccc(S(=O)(=O)O)cc1)c1ccc([n-]1)/C=2c1ccc(S(=O)(=O)O)cc1.O.O=S(=O)(O)C(F)(F)F.[Cu+2]
inactive: endpoint: median survival time, dose: 6.25 mg/kg/injection, schedule: Q01DX009 (ip), vehicle: saline 101 % of control | endpoint: median survival time, dose: 12.5 mg/kg/injection, schedule: Q01DX009 (ip), vehicle: saline 104 % of control | endpoint: median survival time, dose: 25.0 mg/kg/injection, schedule: Q01DX009 (ip), vehicle: saline 103 % of control | endpoint: median survival time, dose: 50.0 mg/kg/injection, schedule: Q01DX009 (ip), vehicle: saline 112 % of control | endpoint: median survival time, dose: 100.0 mg/kg/injection, schedule: Q01DX009 (ip), vehicle: saline 103 % of control

CC(=O)OC1CCC2(C)C(CCC3(C)C2CCC2C4C5OC(=O)C4(CCC5(C)C)CCC23C)C1(C)C (stereo not given)
inactive: endpoint: mean survival time, dose: 6.25 mg/kg/injection, schedule: Q04DX002 (ip), vehicle: saline with Tween-80 114 % of control | [12] 100 % of control | [13] 100 % of control | endpoint: mean survival time, dose: 50.0 mg/kg/injection, schedule: Q04DX002 (ip), vehicle: saline with Tween-80 88 % of control | [1] 98 % of control

COc1ccc2c(O)c(C)c(=O)n(C)c2c1
inactive: [1] 96 % of control | [2] 96 % of control | [3] 93 % of control

CC1=C(/C=C/C(O)CC(O)(C(F)(F)F)C(F)(F)F)C(C)(C)CCC1 (stereo not given)
inactive: endpoint: mean survival time, dose: 100.0 mg/kg/injection, schedule: Q04DX003 (ip), vehicle: saline 107 % of control | endpoint: mean survival time, dose: 200.0 mg/kg/injection, schedule: Q04DX003 (ip), vehicle: saline 98 % of control | endpoint: mean survival time, dose: 400.0 mg/kg/injection, schedule: Q04DX003 (ip), vehicle: saline 110 % of control

CC1C([N+]2(C)CCCCC2)CS1(=O)=O (stereo not given)
inactive: endpoint: mean survival time, dose: 100.0 mg/kg/injection, schedule: Q04DX002 (ip), vehicle: saline 103 % of control | endpoint: mean survival time, dose: 200.0 mg/kg/injection, schedule: Q04DX002 (ip), vehicle: saline 100 % of control | endpoint: mean survival time, dose: 400.0 mg/kg/injection, schedule: Q04DX002 (ip), vehicle: saline 95 % of control

CCCCNC(=O)Oc1ccc(OCc2ccccc2)cc1
inactive: [7] 96 % of control | [4] 94 % of control | [8] 89 % of control | [5] 91 % of control | endpoint: mean survival time, dose: 400.0 mg/kg/injection, schedule: Q01DX009 (ip), vehicle: saline with Tween-80 92 % of control

O=S(=O)(Nc1ccc2c3c(cccc13)C=C2)c1ccccc1
inactive: [4] 98 % of control | [5] 98 % of control | [6] 98 % of control

CCC(C)CC(N)O (stereo not given)
inactive: [11] 103 % of control | endpoint: mean survival time, dose: 150.0 mg/kg/injection, schedule: Q01DX001 (ip), vehicle: saline 97 % of control

CCO/C=C1\SC(=S)N(c2cccc(OC)c2)C1=O
inactive: [4] 96 % of control | [5] 106 % of control | [6] 101 % of control
